Measurements reported in PubChem BioAssay (NCI).
Several values for one entry are separate records, joined by “and”; a condition that tells them apart may be missing. Equal entries are not always repeated.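 Cultured in 96-well plates, cells were exposed to test compound for 48 hours across five concentrations. Abbreviation: GI50, concentration required for 50% inhibition of growth. At the TGI there is no net growth.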

What was measured:
Assay in all cases: NCI-60 cell line screen, 48 h
MDA-MB-435 = tested on: MDA-MB-435
BT-549 breast = tested on: BT-549 breast
HCT-116 colon = tested on: HCT-116 colon
MDA-MB-231 breast = tested on: MDA-MB-231 breast
UACC-62 melanoma = tested on: UACC-62 melanoma
SF-268 CNS = tested on: SF-268 CNS
MOLT-4 leukemia = tested on: MOLT-4 leukemia
OVCAR-5 ovarian = tested on: OVCAR-5 ovarian
LOX IMVI melanoma = tested on: LOX IMVI melanoma
SNB-19 CNS = tested on: SNB-19 CNS

Compound | GI50 (MDA-MB-435) | TGI (MDA-MB-435) | GI50 (BT-549 breast) | TGI (BT-549 breast) | GI50 (HCT-116 colon) | TGI (HCT-116 colon) [µM] | GI50 (MDA-MB-231 breast) | TGI (MDA-MB-231 breast) | GI50 (UACC-62 melanoma) | TGI (UACC-62 melanoma) [µM] | GI50 (SF-268 CNS) | TGI (SF-268 CNS) | GI50 (MOLT-4 leukemia) | TGI (MOLT-4 leukemia) [µM] | GI50 (OVCAR-5 ovarian) | TGI (OVCAR-5 ovarian) [µM] | GI50 (LOX IMVI melanoma) | TGI (LOX IMVI melanoma) [µM] | GI50 (SNB-19 CNS) | TGI (SNB-19 CNS)
Cc1ccc2c(-c3ccnc(Nc4ccccc4)n3)c(-c3ccc(F)cc3)nn2n1 | 6.83 µM | > 25 µM | 10.7 µM | > 25 µM | 4.48 µM | 14.6 | 8.25 µM | > 25 µM | 7.82 µM | > 25 | 11.1 µM | > 25 µM | 13.4 µM | > 25 | 8.25 µM | > 25 | 5.92 µM | > 25 | 14.4 µM | > 25 µM
C#CC1(OC(C)=O)CCC2C3CC=C4C=C(OC(C)=O)CCC4(C)C3CCC21C (configuration not stated) |  | 45.2 µM |  | 83.1 µM |  | 44.3 |  | 58.3 µM |  | 44.5 |  | 48.4 µM |  | 33.3 |  | > 100 |  | 53.2 |  | > 100 µM
Cc1cc(O)cc2c1[C@]1(C)CCC3C(C)(C)CCC[C@]3(C)[C@H]1C2 (some centres not stated) | 18.8 µM | 33.4 µM | 21.6 µM | 38.6 µM | 19 µM | 33 | 22 µM | 38.5 µM | 18.6 µM | 33.2 | 21 µM | 39.4 µM | 28.1 µM | 98.6 | 21.4 µM | 37.2 | 19.5 µM | 35.8 | 20.8 µM | 35.7 µM
CNC/C(Cl)=N/S(=O)(=O)c1ccc(C)cc1 |  | 21.5 µM |  | 51.7 µM |  | 21.1 |  | 28.5 µM |  | 21.9 |  | > 100 µM |  |  |  | 47.5 |  | 27.3 |  | 68.2 µM
C/C(=N\Nc1cc(C)c2ccccc2n1)c1ccccn1 | 0.21 µM | 1.75 µM | 0.301 µM | 15.7 µM | < 0.0401 µM | 1.29 | < 0.0283 µM | 1.66 µM | 0.11 µM | 0.631 | 0.0433 µM | 1.71 µM | < 0.0381 µM | 0.489 | 0.0706 µM | 5.26 | 0.0807 µM | 1.31 | 0.159 µM | 13.6 µM
CC1(C)CC2=C(Sc3ccccc3N2)C(=O)C1C(=O)C(=O)Nc1cccc([N+](=O)[O-])c1 (configuration not stated) |  | > 100 µM |  | > 100 µM |  | > 100 |  | > 100 µM |  | > 100 |  | > 100 µM |  | > 100 |  | > 100 |  | > 100 |  | > 100 µM
CC(C)C[C@H](NC(=O)Cn1ccc(NCc2ccccc2)cc1=O)B(O)O | 0.335 µM | 1.29 µM | 0.431 µM | 2.59 µM | 0.576 µM | 3.66 | 3.18 µM | 19.8 µM | 1.6 µM | 11.1 | 3.57 µM | 27.5 µM | 0.319 µM |  | 5.29 µM | > 100 | 0.606 µM | 2.31 | 4.96 µM | > 100 µM
CC1=C(C(=O)Nc2ccc(Cl)c(Cl)c2)C(c2cccc(Cl)c2)NC(=O)N1 (configuration not stated) | 0.464 µM | 1.92 µM | 6.42 µM | 13.4 µM | 12 µM | > 50 | 4.44 µM | 11.7 µM | 5.9 µM | 12.3 | 7.85 µM | 17.4 µM | 4.99 µM | > 23.3 | 11.2 µM | 30.9 | 7.66 µM | 16.2 | 9.52 µM | 21 µM
Cc1cc(=O)oc2c(C)c(O)ccc12 |  | > 100 µM |  | > 100 µM |  | > 100 |  | > 100 µM |  | > 100 |  | > 100 µM |  | > 100 |  | > 100 |  | > 100 |  | > 100 µM
COc1cc2ncn(-c3cc(O[C@@H](C)c4ccccc4Cl)c(C(N)=O)s3)c2cc1OC | 0.146 µM | > 25 µM | 2.94 µM | > 24.1 µM | 1.01 µM | > 25 | 1.19 µM | > 25 µM | 0.638 µM | > 25 | 1.61 µM | > 25 µM | 0.926 µM | > 18.4 | 1.29 µM | > 25 | 1.05 µM | > 25 | 2.7 µM | > 25 µM
C=C(CN1CCN(c2cccc(C(F)(F)F)n2)CC1)c1ccc(C(=O)Nc2ccccc2N)cc1 | 0.27 µM and 0.205 µM | 2.26 µM and 0.767 µM | 0.918 µM and 0.34 µM | 88.4 µM and > 100 µM | 0.537 µM and 0.402 µM | > 100 | 4.63 µM and 1.02 µM | 34.2 µM and > 72.7 µM | 0.97 µM and 0.51 µM | > 100 | 1.13 µM and 0.578 µM | 31.2 µM and > 100 µM | 0.855 µM and 0.478 µM | > 100 | 0.712 µM and 3.63 µM | > 100 | 1.5 µM and 0.496 µM | > 100 | 0.65 µM and 0.708 µM | 29.3 µM and 23.5 µM
Cc1cccc(C)c1NC(=O)C(=O)CC(=O)/C=C/c1ccccc1 |  | > 100 µM |  | > 100 µM |  | > 100 |  | > 100 µM |  | > 100 |  | > 100 µM |  | > 100 |  | > 100 |  | > 100 |  | > 100 µM
C=CC1CCC[N+]1(CC(=O)OCC)Cc1ccccc1 (configuration not stated) |  | > 100 µM |  | > 100 µM |  | > 100 |  | > 100 µM |  | > 100 |  | > 100 µM |  | > 100 |  | > 100 |  |  |  | > 100 µM
Cc1ccc(Cc2cnc(NC(=O)/C=C/c3cccc(C)c3)s2)cc1 | 0.0275 µM | 0.104 µM | 0.256 µM | > 27.4 µM | 0.0746 µM | 2.4 | 0.397 µM | 5.08 µM | 0.0645 µM | 25.3 | 1.85 µM | > 100 µM | 0.261 µM | > 100 | 0.492 µM | > 70.8 | 0.124 µM | 7.4 | 0.224 µM | 23.1 µM
CC(=O)N1C/C(=C/c2ccc(Cl)cc2)C(=O)/C(=C/c2ccc(Cl)cc2)C1 | 0.43 µM | 1.82 µM | 0.435 µM | 1.32 µM | 0.202 µM | 0.465 | 1.15 µM | 3.23 µM | 0.664 µM | 1.84 | 1.37 µM | 4.02 µM | 0.249 µM | 7.58 | 1.68 µM | 3.45 | 0.184 µM | 0.395 | 1.14 µM | 2.49 µM
